In patent publication US20100204203A1, “Chemical Compounds 637: Pyridopyrimidinediones as PDE4 Inhibitors” (priority 2007, published 2010):

target: recombinant Human Phosphodiesterase B2 (PDE4B2) (Homo sapiens, UniProt Q07343); experiment: Human Phosphodiesterase B2 Radiometric Assay (yttrium silicate SPA beads, [3H]cyclic AMP); format: biochemical; details: recombinant human PDE4B2, radiometric SPA assay, 8 nM [3H]cyclic AMP; read-out: PDE4B2 pIC50 (converted)
Method in brief: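 Compounds were preincubated 30 min at 30 °C with 0.1 mg/mL PDE4B2 in 50 mM HEPES pH 7.5, 8.3 mM MgCl2, 1.7 mM EGTA, 0.01% Brij 35. Then 8 nM [3H]cAMP was added for 20 min, stopped with yttrium silicate SPA beads plus 18 mM ZnSO4 capturing product 5′AMP; pIC50 by curve fitting.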

recombinant Human Phosphodiesterase B2 (PDE4B2), sequence (Q07343 1-564 isoform Q07343-2): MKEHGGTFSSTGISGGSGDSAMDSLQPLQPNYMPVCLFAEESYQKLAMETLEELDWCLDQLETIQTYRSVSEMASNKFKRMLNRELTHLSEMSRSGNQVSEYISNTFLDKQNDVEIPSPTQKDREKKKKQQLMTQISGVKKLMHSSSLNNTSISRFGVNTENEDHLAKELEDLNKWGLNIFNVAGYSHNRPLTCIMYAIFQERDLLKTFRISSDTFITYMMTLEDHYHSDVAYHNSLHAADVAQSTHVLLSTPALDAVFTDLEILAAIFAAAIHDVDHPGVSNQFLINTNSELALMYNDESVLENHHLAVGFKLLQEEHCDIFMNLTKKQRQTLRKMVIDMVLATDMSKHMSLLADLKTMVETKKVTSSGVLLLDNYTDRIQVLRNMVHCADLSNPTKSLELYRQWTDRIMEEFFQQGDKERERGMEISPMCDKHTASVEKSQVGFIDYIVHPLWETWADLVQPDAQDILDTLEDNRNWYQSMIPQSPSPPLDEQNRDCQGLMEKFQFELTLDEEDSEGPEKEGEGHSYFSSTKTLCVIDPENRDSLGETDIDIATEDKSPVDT

Point of comparison: `O=c1c2cc(F)cnc2n(-c2cccc(-c3ccc(O)cc3CN3CCOCC3)c2)c(=O)n1[C@H]1CC[C@@H](NCc2ccc(Cl)cc2)CC1` [Example 281, 3-{cis-4-{(4-chlorobenzyl)amino]cyclohexyl}-6-fluoro-1-[4′-hydroxy-2′-(morpholin-4-ylmethyl)biphenyl-3-yl]pyrido[2,3-d]pyrimidine-2,4(1H,3H)-dione], IC50 1 nM. Against it:
- O=C(N[C@H]1CC[C@@H](n2c(=O)c3cc(F)cnc3n(-c3cccc(-c4ccccc4C(=O)O)c3)c2=O)CC1)c1cn2cc(F)ccc2n1 [Example 60, 3′-[6-fluoro-3-(cis-4-{[(6-fluoroimidazo[1,2-a]pyridin-2-yl)carbonyl]amino}cyclohexyl)-2,4-dioxo-3,4-dihydropyrido[2,3-d]pyrimidin-1(2H)-yl]biphenyl-2-carboxylic acid] — 6.3-fold higher, 6.31 nM
- Cc1cccc(C(=O)N[C@H]2CC[C@@H](n3c(=O)c4cc(F)cnc4n(-c4cccc(-c5ccc(CN6CCCN(C)CC6)cc5)c4)c3=O)CC2)n1 [Example 308, N-{cis-4-[6-fluoro-1-{4′-[(4-methyl-1,4-diazepan-1-yl)methyl]biphenyl-3-yl}-2,4-dioxo-1,4-dihydropyrido[2,3-d]pyrimidin-3 (2H)-yl]cyclohexyl}-6-methylpyridine-2-carboxamide] — 16-fold lower, 0.0631 nM
- COc1ccc(CN[C@H]2CC[C@@H](n3c(=O)c4cc(F)cnc4n(-c4cccc(-c5ccc(CN6CCN(C(C)C)CC6)cc5)c4)c3=O)CC2)cc1Cl [Example 260, 3-{cis-4-[(3-chloro-4-methoxybenzyl)amino]cyclohexyl}-6-fluoro-1-{4′-[(4-isopropyl-piperazin-1-yl)methyl]biphenyl-3-yl}pyrido[2,3-d]pyrimidine-2,4(1H,3H)-dione] — 2-fold lower, 0.501 nM
- CN1CCN(Cc2ccc(-c3cccc(-n4c(=O)n([C@H]5CC[C@@H](NC(=O)c6cn7cc(F)ccc7n6)CC5)c(=O)c5cc(F)cnc54)c3)cc2)CC1 [Example 269, 6-Fluoro-N-{cis-4-[6-fluoro-1-{4′-[(4-methylpiperazin-1-yl)methyl]biphenyl-3-yl}-2,4-dioxo-1,4-dihydropyrido[2,3-d]pyrimidin-3(2H)-yl]cyclohexyl}imidazo[1,2-a]pyridine-2-carboxamide] — 50-fold lower, 0.02 nM
- O=C(N[C@H]1CC[C@@H](n2c(=O)c3cc(F)cnc3n(-c3cccc(-c4ccc(OCCCN5CCOCC5)cc4)c3)c2=O)CC1)c1cn2cc(F)ccc2n1 [Example 81, 6-fluoro-N-{cis-4-[6-fluoro-1-[4′-(3-morpholin-4-ylpropoxy)biphenyl-3-yl]-2,4-dioxo-1,4-dihydropyrido[2,3-d]pyrimidin-3(2H)-yl]cyclohexyl}imidazo[1,2-a]pyridine-2-carboxamide] — 160-fold lower, 0.00631 nM
- CC(C)N1CCN(Cc2ccc(-c3cccc(-n4c(=O)n([C@H]5CC[C@@H](NCc6cccc(C#N)c6)CC5)c(=O)c5cc(F)cnc54)c3)cc2)CC1 [Example 259, 3-[({cis-4-[6-fluoro-1-{4′-[(4-isopropylpiperazin-1-yl)methyl]biphenyl-3-yl}-2,4-dioxo-1,4-dihydropyrido[2,3-d]pyrimidin-3(2H)-yl]cyclohexyl}amino)methyl] benzonitrile] — 1.6-fold lower, 0.631 nM
- C[C@@H]1CN(Cc2ccc(-c3cccc(-n4c(=O)n([C@H]5CC[C@@H](NC(=O)c6cn7c(n6)CCCC7)CC5)c(=O)c5cc(F)cnc54)c3)cc2)C[C@H](C)O1 [Example 138, N-{cis-4-[1-(4′-{[(2R,6S)-2,6-dimethylmorpholin-4-yl]methyl}biphenyl-3-yl)-6-fluoro-2,4-dioxo-1,4-dihydxopyrido[2,3-d]pyrimidin-3(2H)-yl]cyclohexyl}-5,6,7,8-tetrahydroimidazo[1,2-a]pyridine-2-carboxamide] — 320-fold lower, 0.00316 nM
- O=c1c2cc(F)cnc2n(-c2cccc(-c3cc(O)ccc3CN3CCOCC3)c2)c(=O)n1[C@H]1CC[C@@H](NCc2cn3cc(F)ccc3n2)CC1 [Example 337, 6-fluoro-3-(cis-4-{[(6-fluoroimidazo[1,2-a]pyridin-2-yl)methyl]amino}cyclohexyl)-1-[5′-hydroxy-2′-(morpholin-4-ylmethyl)biphenyl-3-yl]pyrido[2,3-d]pyrimidine-2,4(1H,3H)-dione] — 10-fold lower, 0.1 nM
- CC(C)(C)OC(=O)NCc1ccc(-c2cccc(-n3c(=O)n([C@H]4CC[C@@H](NC(=O)c5cn6cc(F)ccc6n5)CC4)c(=O)c4cc(F)cnc43)c2)cc1 [Example 21, tert-butyl ({3′-[6-fluoro-3-(cis-4-{[(6-fluoroimidazo[1,2-a]pyridin-2-yl)carbonyl]amino}cyclohexyl)-2,4-dioxo-3,4-dihydropyrido[2,3-d]pyrimidin-1(2H)-yl]biphenyl-4-yl}methyl)carbamate.] — 20-fold lower, 0.0501 nM
- O=C(N[C@H]1CC[C@@H](n2c(=O)c3cc(F)cnc3n(-c3ccc(Cc4ccccc4)cc3)c2=O)CC1)c1cn2cc(F)ccc2n1 [Example 37, N-{cis-4-[1-(4-benzylphenyl)-6-fluoro-2,4-dioxo-1,4-dihydropyrido[2,3-d]pyrimidin-3(2H)-yl]cyclohexyl}-6-fluoroimidazo[1,2-a]pyridine-2-carboxamide] — 6.3-fold higher, 6.31 nM
- CN(C)Cc1cccc(-c2cccc(-n3c(=O)n([C@H]4CC[C@@H](NC(=O)c5cn6cc(F)ccc6n5)CC4)c(=O)c4cc(F)cnc43)c2)c1 [Example 16, N-{cis-4-[1-{3′-[(dimethylamino)methyl]biphenyl-3-yl}-6-fluoro-2,4-dioxo-1,4-dihydropyrido[2,3-d]pyrimidin-3(2H)-yl]cyclohexyl}-6-fluoroimidazo[1,2-a]pyridine-2-carboxamide.] — 4-fold lower, 0.251 nM
- Cc1cc(C(=O)N[C@H]2CC[C@@H](n3c(=O)c4cc(F)cnc4n(-c4cccc(-c5ccc(CN6CCN(C(C)C)CC6)cc5)c4)c3=O)CC2)no1 [Example 243, N-{cis-4-[6-fluoro-1-{4′-[(4-isopropylpiperazin-1-yl)methyl]biphenyl-3-yl}-2,4-dioxo-1,4-di-hydropyrido[2,3-d]pyrimidin-3(2H)-yl]cyclohexyl}-5-methyl-isoxazole-3-carboxamide] — 25-fold lower, 0.0398 nM
- O=C(N[C@H]1CC[C@@H](n2c(=O)c3cc(F)cnc3n(-c3cccc(-c4ccc(CN5CCN(C6CCCC6)CC5)cc4)c3)c2=O)CC1)c1cnccn1 [Example 295, N-{cis-4-[1-{4′-[(4-cyclopentylpiperazin-1-yl)methyl]biphenyl-3-yl}-6-fluoro-2,4-dioxo-1,4-dihydropyrido[2,3-d]pyrimidin-3(2H)-yl]cyclohexyl} pyrazine-2-carboxamide] — 10-fold lower, 0.1 nM
- CN(C)CCCOc1cc(F)ccc1-c1cccc(-n2c(=O)n([C@H]3CC[C@@H](NC(=O)c4cn5cc(F)ccc5n4)CC3)c(=O)c3cc(F)cnc32)c1 [Example 84, N-{cis-4-[1-{2′-[3-(dimethylamino)propoxy]-4′-fluorobiphenyl-3-yl}-6-fluoro-2,4-dioxo-1,4-dihydropyrido[2,3-d]pyrimidin-3(2H)-yl]cyclohexyl}-6-fluoroimidazo[1,2-a]pyridine-2-carboxamide] — 5-fold lower, 0.2 nM
- Cc1cc(C(=O)N[C@H]2CC[C@@H](n3c(=O)c4cc(F)cnc4n(-c4cccc(-c5ccc(CN6CCN(C7CCCC7)CC6)cc5)c4)c3=O)CC2)nn1C [Example 215, N-{cis-4-[1-{4′-[(4-cyclopentylpiperazin-1-yl)methyl]biphenyl-3-yl}-6-fluoro-2,4-dioxo-1,4-dihydropyrido[2,3-d]pyrimidin-3(2H)-yl]cyclohexyl}-1,5-dimethyl-1H-pyrazole-3-carboxamide] — 32-fold lower, 0.0316 nM
